Experimental findings from US6593342B1, “Pharmaceutical compositions comprising 2-quinolones” (Laboratoire L. Lafon, priority 1998, dated 2003) are described below.

This assay deals with colorectal line HT-29. The assay is described as follows: Clonogenic test (soft agar colony growth), HT-29. It counts as cell-based. Particulars: 21 days, control = 100%, mean ± SEM. The text has this: 1—Interaction (Stimulation or Inhibition of Proliferation) With the Generation of Clonogenic Cells (Clonogenic Test)
The test used is that described by Hamburger et al. (Science, 1977; 197, 461-463) and Salmon et al. (New England J. Med., 298, 1321-1327). A cell is considered clonogenic if it has the capacity to proliferate and to give rise to a cell colony. “Human tumor stem cells” are the cells which are the source of the neoplastic cells which constitute a given tumor. These tumor stem cells are responsible for the relapse processes which may be observed after surgical resection of primary tumors and are also responsible for the formation of metastases. In a tumor or a tumor cell line, these clonogenic stem cells differ from the other cells of the tumor or from the neoplastic cell line under consideration in that they conserve their capacity to proliferate in the absence of any solid support.
In this test, the tumor cells are cultured on a semi-solid support consisting of agar. […] In a tumor cell population, cultured on such a support, it is these clonogenic cells (associated with an unlimited number of cell divisions and whose proliferation is referred to by M. I. Dawson as “anchorage-independent [clonal] growth”) which are capable of growing. The percentage of these clonogenic cells in a tumor or a cell line ranges between 0.1% and 0.001%.
The influence of the compounds of formulae (I) and (Ia) on the growth of the cell colonies obtained by culturing, for example, the mammalian tumor lines MCF7 and MXT and the colorectal line HT-29 on the semi-liquid culture medium known as “soft agar” was measured. On such a medium, only the clonogenic cells referred to by M. I. Dawson as “anchorage-independent (clonal) cells” survive and grow. The growth of these cells in such a “non-adherent” mode bears witness to their degree of tumorigenicity. The inhibition of the growth of the size of a tumor in which a larger number of clonogenic cells has developed then becomes the evidence of reinforced cytotoxic activity.
Conversely, this test can also reveal that a compound is capable of inhibiting the generation/proliferation of clonogenic cells, thus making the tumor less able to grow and thus reducing the population of tumor cells.
The tumor cell lines studied are maintained in culture in 25 cm^2 falcon dishes. They are then trypsinized and the cells are fully dissociated from each other. The percentage of live cells is determined after staining with trypan blue. A cell suspension at a concentration of from 5·10^4 to 15·10^4 cells/ml (depending on the cell type under consideration) is prepared in a 0.3% agar solution. Next, 200 μl of this suspension are inoculated in Petri dishes 35 mm in diameter, in which are placed 3 ml of a base layer consisting of a 0.5% agar solution. The 200 μl of cell suspension are in turn covered with 1.8 ml of an upper layer consisting of a 0.3% agar solution. The dishes are then placed in an incubator at 37° C., 5% CO2 and 70% humidity until the treatment. This treatment is carried out about 1 to 2 hours after the inoculation. The test compounds are prepared at a concentration 100 times greater than the desired concentration and 50 μl of these treating solutions are placed over the upper layer of agar in the corresponding dishes. In the present study, the final concentration of the test products is 10^−5, 10^−7 and 10^−9 M. The dishes are then kept in an incubator for 21 days. On the 21st day the dishes are treated by depositing on the upper layer 100 μl of a 1 mg/ml solution of MTT (3-(4,5-dimethylthiazol-2-yl)-2,5-diphenyltetrazolinium bromide prepared with RPMI 1640 medium) for 3 h at 37° C. After this period, the cell colonies are fixed by adding 2 ml of formalin per dish. After fixing for 24 hours, the formalin is evaporated off and the number of stained cell colonies, thus consisting of metabolically active cells, and whose surface area is greater than 100 μm^2, is determined using an inverted microscope. […]

Structures are written as SMILES.

Turning to `COc1ccc(-c2cc3c(OC)cc(OC)cc3[nH]c2=O)cc1` [CRL8246, 5,7-Dimethoxy-3-(4-methoxyphenyl)-1,2-dihydro-2-quinolinone], the “average number of clones of clonogenic cells, percentage relative to control” value (“average number … percentage relative to control” below) was found to be 70.9 ± 2.8% (10^−5 M), 103.3 ± 3.6% (10^−7 M) and 104 ± 2.7% (10^−9 M).
The corresponding values for `COc1ccc(-c2cc3c(OC)cc(OC)cc3n(CCC#N)c2=O)cc1` [CRL8247, 3-[5,7-Dimethoxy-3-(4-methoxyphenyl)-2-oxo-1,2-dihydro-1-quinolinyl]propanenitrile] are 72.7 ± 3.6%, 98.3 ± 4.9% and 104.5 ± 2.7%.
With `COc1ccc(-c2cc3c(OC)cc(OC)cc3n(CCc3nnn[nH]3)c2=O)cc1` [CRL8256, 1-[2-(1H-1,2,3,4-Tetrazol-5-yl)ethyl]-5,7-dimethoxy-3-(4-methoxyphenyl)-1,2-dihydro-2-quinolinone], the “average number … percentage relative to control” value runs as follows: (10^−5 M) 97.1 ± 4.3%; (10^−7 M) 100.5 ± 4.1%; (10^−9 M) 107.5 ± 3.7%.
On to `CCN(CC)C(=O)CCn1c(=O)c(-c2ccc(OC)cc2)cc2c(OC)cc(OC)cc21` [CRL8283, N,N-Diethyl-3-[5,7-dimethoxy-3-(4-methoxy-phenyl)-2-oxo-1,2-dihydro-1-quinolinyl]propanamide], for which the “average number … percentage relative to control” value is given as 88.9 ± 0.2% (10^−5 M), 90.9 ± 3.1% (10^−7 M) and 106.1 ± 1.4% (10^−9 M).
The matching figures for `CCN(CC)C(=O)Cn1c(=O)c(-c2ccc(OC)cc2)cc2c(OC)cc(OC)cc21` [CRL8315, N,N-Diethyl-2-[5,7-dimethoxy-3-(4-methoxy-phenyl)-2-oxo-1,2-dihydro-1-quinolinyl]acetamide]: 103.5 ± 4.5%, 111.9 ± 5.4% and 112.9 ± 2.4%.
Consider `COc1ccc(-c2cc3c(OC)cc(OC)cc3n(CCN(C)C)c2=O)cc1` [CRL8316, 1-[2-(Dimethylamino)ethyl]-5,7-dimethoxy-3-(4-methoxyphenyl)-1,2-dihydro-2-quinolinone], for which the “average number … percentage relative to control” value (10^−5 M) stood at 50.6 ± 1.8%; the “average number … percentage relative to control” value (10^−7 M) is 80.1 ± 2.9%; the “average number … percentage relative to control” value (10^−9 M) came out at 101.6 ± 3.2%.
